According to patent US20140066394A1, “Substituted 6-(Benzylamino) Purine Riboside Derivatives, Use Thereof and Compositions Containing These Derivatives” (Biopatterns, S.R.O, priority 2009, published 2014):

Legend:
β-adrenergic receptors = experiment: Isoproterenol-induced cAMP synthesis in rat C6 glioma (anti-inflammatory activity); type: cell-based; details: for Effect (modulation of isoproterenol-induced cAMP synthesis): added simultaneously with (−)-isoproterenol; for IC50: cellular cAMP by enzyme immunoassay, dose-response curve in duplicate, read-out: I50
Protocol: Anti-inflammatory activity of several of the 2-substituted 6-benzylaminopurine riboside derivatives of this invention was determined; kinetin riboside was also evaluated as a control. Rat C6 glioma (ATCC No. CCL107) was cultivated in monolayer in serum-free chemically defined medium containing Ham's F10/minimal essential medium (1:1 v/v), 2 mM L-glutamine, 1% (v/v) minimal essential medium vitamins (100×), 1% (v/v) minimal essential medium nonessential amino acids (100×), 100 U/mL penicillin, […], and 30 nM sodium selenite. Incubation was performed at 37° C. in a humidified atmosphere. The assays were performed in the logaritmic growth phase at a density of 2.5×10^5 cells/cm^2.
Intracellular cAMP synthesis was induced by addition of 5 mM (−)-isoproterenol; various amounts of test compounds were added at the same time as the (−)-isoproterenol. After […] incubation at 37° C., the medium was removed and the cellular amount of cAMP was determined using the cAMP-enzyme immunoassay kit from Amersham. The I50 value was determined from a dose-response curve in duplicate. The effect of nine purine analogues was measured after simultaneous addition with isoproterenol.
As P2Y1-like and A2 purinergic receptors, negatively and positively coupled to adenylate cyclase respectively, are present on rat C6 glioma as to be determined if the modulation of the synthesis of cAMP is due to inhibition of the activation of β-adrenergic receptors by isoproterenol are due to activation of purinergic receptors.

[1] = system: cytokinin-dependent tobacco callus Nicotiana tabacum L. cv. Wisconsin 38; experiment: Tobacco callus bioassay (stimulation of plant cell division); type: cell-based; details: for concentration with highest activity: increase of fresh callus weight after four weeks, tested 10^−8 M to 10^−4 M; for activity (%) [10^−5 mol · l^−1 C = 100%]: relative activity at the concentration with highest activity, kinetin riboside at 10^−5 mol/l = 100%
Protocol: Cytokinin-dependent tobacco callus Nicotiana tabacum L. cv. Wisconsin 38 was maintained at 25° C. in darkness on modified MS medium, containing per 1 liter: 4 μmol of nicotinic acid, 2.4 μmol of pyridoxine hydrochloride, 1.2 μmol of thiamine, 26.6 μmol of glycine, 1.37 μmol of glutamine, 1.8 μmol of myo-inositol, 30 g of sucrose, 8 g of agar, 5.37 μmol of NAA and 0.5 μmol of the compound tested. Subcultivation was carried out every three weeks. Fourteen days before the bioassay, the callus tissue was transferred to the media without the compound tested. The biological activity was determined from the increase of the fresh callus weight after four weeks of cultivation. Five replicates were prepared for each concentration of the compound tested and the entire test was repeated twice. From the obtained data, the concentration with the highest activity was selected for each compound tested. Relative activity of the compound at this concentration was calculated (Table 8). The compounds to be tested were dissolved in dimethylsulfoxide (DMSO) and the solution brought up to 10^−3M with distilled water. […] The compounds listed in Table 8 are compared to a “classical cytokinin” kinetin riboside (compound known in the prior art—C=control).

[2] = system: human myeloid leukemia K-562; experiment: In vitro cytotoxicity, Calcein AM assay, K-562; type: cell-based
Source text: (§1) Low cytotoxicity of the compounds is the major property determining the cosmetic use. One of the parameters used, as the basis for cytotoxicity assays, is the metabolic activity of viable cells. For example, a microtiter assay, which uses the Calcein AM, is now widely used to quantitate cell proliferation and cytotoxicity. For instance, this assay is used in drug screening programs and in chemosensitivity testing. Because only metabolically active cells cleave Calcein AM, these assays detect viable cells exclusively. The quantity of […] Calcein AM corresponds to the number of vital cells in the culture.
(§2) Human T-lymphoblastic leukemia cell line CEM; promyelocytic HL-60 and monocytic U937 leukemias; breast carcinoma cell lines MCF-7, BT549, MDA-MB-231; glioblastoma U87MG cells; cervical carcinoma cells HELA; sarcoma cells U2OS and Saos2; hepatocellular carcinoma HepG2; mouse fibroblasts NIH3T3; mouse immortalized bone marrow macrophages B2.4 and B10A.4; P388D1 and L1210 leukemia; B16 and B16F10 melanomas; human osteosarcoma HOS; human myeloid leukemia K-562; human skin melanoma G-361 were used for routine screening of compounds. The cells were maintained in Nunc/Corning 80 cm^2 plastic tissue culture flasks and cultured in cell culture medium (DMEM with 5 g/l glucose, 2 mM glutamine, 100 U/mL penicillin, 100 μg/mL streptomycin, 10% fetal calf serum and sodium bicarbonate).
(§3) The cell suspensions that were prepared and diluted according to the particular cell type and the expected target cell density (2.500-30.000 cells per well based on cell growth characteristics) were added by pipette ([…]) into 96/well microtiter plates. Inoculates were allowed a pre-incubation period of 24 hours at 37° C. and 5% CO2 for stabilisation. Four-fold dilutions of the intended test concentration were added at time zero in 20 μl aliquots to the microtiter plate wells. Usually, the compound tested was evaluated at six 4-fold dilutions. In routine testing, the highest well concentration was 100 μM, but it can be the matter of change dependent on the agent. All drug concentrations were examined in duplicates. Incubations of cells with the tested compounds lasted for 72 hours at 37° C., in 5% CO2 atmosphere and 100% humidity. At the end of the incubation period, the cells were assayed by using Calcein AM. Ten microliters of the stock solution were pipetted into each well and incubated for 1 hour. Fluorescence (FD) was measured with the Labsystem FIA Reader Fluoroscan Ascent (UK). The tumour cell survival (GI50) was calculated using the following equitation: TCS=(FDdrug exposed well/mean FDeontrol wells)×100%. The GI50 value, the drug concentration lethal to 50% of the tumour cells, was calculated from the obtained dose response curves.
(§4) Zero cytotoxicity of the novel compounds is the basic prerequisite for agricultural and tumor-unrelated applications. The cytoxicity of the novel compounds was tested on a panel of cell lines of different histogenetic and species origin (Table 9). We show herein that equal activities were found in all tumour cell lines tested, however, the non-malignant cells, e.g. NIH3T3 fibroblasts and normal human lymphocytes, were resistant to 2,6-disubstituted purine ribosides induced cytotoxicity. The compounds listed in Tab. 9 can be divided into 2 groups. The first group contains “classical cytokinins” represented by 6-substituted purine ribosides (which are known in the prior art). The second group contains the novel 2,6-disubstituted derivatives of these compounds. […] GI50 for NIH3T3 fibroblasts and normal human lymphocytes was always higher than 100 μM. The novel derivatives show no toxicity to normal and tumour cells in concentrations about 100 μM and thus are more suitable for agricultural applications than “classical cytokinins” (6-substituted purine riboside derivatives).

[3] = system: Human T-lymphoblastic leukemia cell line CEM; experiment: In vitro cytotoxicity, Calcein AM assay, CEM; type: cell-based; details: 72 hours
Source text: as §1, §2, §3, §4

human osteosarcoma HOS = experiment: In vitro cytotoxicity, Calcein AM assay, HOS; type: cell-based; details: 72 hours
Source text: as §1, §2, §3, §4

[4] = system: breast carcinoma cell line MCF-7; experiment: In vitro cytotoxicity, Calcein AM assay, MCF7; type: cell-based, human
Source text: as §1, §2, §3, §4

[5] = system: promyelocytic HL-60 leukemia; experiment: In vitro cytotoxicity, Calcein AM assay, HL60; type: cell-based, human
Source text: as §1, §2, §3, §4

[6] = system: human skin melanoma G-361; experiment: In vitro cytotoxicity, Calcein AM assay, G-361; type: cell-based
Source text: as §1, §2, §3, §4

| Effect (modulation of isoproterenol-induced cAMP synthesis) (β-adrenergic receptors) | IC50 (β-adrenergic receptors) [µM] | SMILES | concentration with highest activity [1] | activity (%) [10^−5 mol · l^−1 C = 100%] [1] | GI50 ([2]; 72 hours) [µM] | GI50 [3] [µM] | GI50 (human osteosarcoma HOS) [µM] | GI50 ([4]; 72 hours) [µM] | GI50 ([5]; 72 hours) [µM] | GI50 ([6]; 72 hours) [µM] | also measured |
| --- | --- | --- | --- | --- | --- | --- | --- | --- | --- | --- | --- |
| inhibition | 4.2 ± 2 | COc1cccc(CNc2nc(F)nc3c2ncn3C2OC(CO)C(O)C2O)c1O (centres unmarked) [Compound 40] | – | – | – | – | – | – | – | – | – |
| – | – | OCC1OC(n2cnc3c(NCc4ccc(F)cc4F)nc(Cl)nc32)C(O)C1O (centres unmarked) [Compound 32] | 10^−6 mol · l^−1 | 109.7 (±12) % | – | – | – | – | – | – | – |
| – | – | COc1ccc(CNc2nc(Cl)nc3c2ncn3C2OC(CO)C(O)C2O)c(O)c1 (centres unmarked) [Compound 11] | – | – | > 100 | > 100 | > 100 | > 100 | > 100 | > 100 | – |
| inhibition | 15.7 ± 4 | OCC1OC(n2cnc3c(NCc4cc(F)ccc4O)nc(Cl)nc32)C(O)C1O (centres unmarked) [Compound 30] | 10^−6 mol · l^−1 | 108.6 (±3) % | – | – | – | – | – | – | GI50 ([2]; Homo sapiens, K562, 72 hours): > 100 µM; GI50 ([3]; Homo sapiens): > 100 µM; GI50 (human osteosarcoma HOS; Homo sapiens): > 100 µM; GI50 ([4]; Homo sapiens, MCF7, 72 hours): > 100 µM; GI50 ([5]; Homo sapiens, HL-60, 72 hours): > 100 µM; GI50 ([6]; Homo sapiens, G-361, 72 hours): > 100 µM |
| – | – | OCC1OC(n2cnc3c(NCc4cc(Cl)ccc4O)ncnc32)C(O)C1O (centres unmarked) [2-hydroxy-5-chlorobenzylamino, reference compound] | – | – | 36 | 2.4 | > 100 | 32 | 1.6 | > 100 | – |
| inhibition | 13.6 ± 3 | OCC1OC(n2cnc3c(NCc4cc(F)ccc4O)nc(F)nc32)C(O)C1O (centres unmarked) [Compound 50] | – | – | – | – | – | – | – | – | – |
| inhibition | 10.8 ± 3 | OCC1OC(n2cnc3c(NCc4cc(Cl)ccc4O)nc(F)nc32)C(O)C1O (centres unmarked) [Compound 49] | 10^−6 mol · l^−1 | 112 (±8) % | – | – | – | – | – | – | – |
| – | – | COc1c(O)cccc1CNc1nc(Cl)nc2c1ncn2C1OC(CO)C(O)C1O (centres unmarked) [Compound 21] | – | – | > 100 | > 100 | > 100 | > 100 | > 100 | > 100 | – |
| – | – | OC[C@H]1O[C@@H](n2cnc3c(NCc4cc(F)ccc4O)ncnc32)[C@H](O)[C@@H]1O [2-hydroxy-5-fluorobenzylamino, reference compound] | – | – | > 100 | 52 | > 100 | > 100 | 24 | > 100 | – |
| – | – | COc1ccc(CNc2ncnc3c2ncn3[C@@H]2O[C@H](CO)[C@@H](O)[C@H]2O)c(O)c1 [2-hydroxy-4-methoxybenzylamino, reference compound] | – | – | 28 | 0.3 | > 100 | 20 | 0.15 | > 100 | – |
| inhibition | 12.4 ± 2 | OC[C@H]1O[C@@H](n2cnc3c(NCc4cc(Cl)ccc4O)nc(Cl)nc32)[C@H](O)[C@@H]1O [Compound 29, 2-Chloro-6-(2-hydroxy-5-chlorobenzylamino)purine riboside] | – | – | > 100 | > 100 | > 100 | > 100 | > 100 | > 100 | – |
| – | – | Cc1ccc(O)c(CNc2ncnc3c2ncn3C2OC(CO)C(O)C2O)c1 (centres unmarked) [2-hydroxy-5-methylbenzylamino, reference compound] | – | – | 18 | 0.9 | > 100 | 6.9 | 10 | > 100 | – |
| – | – | COc1cccc(CNc2ncnc3c2ncn3C2OC(CO)C(O)C2O)c1O (centres unmarked) [2-hydroxy-3-methoxybenzylamino, reference compound] | – | – | > 100 | 40 | > 100 | > 100 | 9.5 | > 100 | – |
| – | – | OCC1OC(n2cnc3c(NCc4c(F)ccc(F)c4F)nc(Cl)nc32)C(O)C1O (centres unmarked) [Compound 33] | 10^−6 mol · l^−1 | 105.1 (±2) % | – | – | – | – | – | – | – |
| – | – | COc1c(O)cccc1CNc1ncnc2c1ncn2[C@@H]1O[C@H](CO)[C@@H](O)[C@H]1O [2-methoxy-3-hydroxybenzylamino, reference compound] | – | – | 16.5 | 1.9 | > 100 | > 100 | 10 | > 100 | – |
| inhibition | 18.7 ± 4 | Cc1cccc(CNc2nc(Cl)nc3c2ncn3C2OC(CO)C(O)C2O)c1O (centres unmarked) [Compound 13] | – | – | > 100 | > 100 | > 100 | > 100 | > 100 | > 100 | – |
| – | – | CSc1nc(NCc2ccc(F)cc2F)c2ncn(C3OC(CO)C(O)C3O)c2n1 (centres unmarked) [Compound 97] | 10^−6 mol · l^−1 | 107 (±8) % | – | – | – | – | – | – | – |

| SMILES | Effect (modulation of isoproterenol-induced cAMP synthesis) (β-adrenergic receptors) | IC50 (β-adrenergic receptors) [µM] | concentration with highest activity [1] | activity (%) [10^−5 mol · l^−1 C = 100%] [1] | GI50 ([2]; 72 hours) [µM] | GI50 [3] [µM] | GI50 (human osteosarcoma HOS) [µM] | GI50 ([4]; 72 hours) [µM] | GI50 ([5]; 72 hours) [µM] | GI50 ([6]; 72 hours) [µM] | also measured |
| --- | --- | --- | --- | --- | --- | --- | --- | --- | --- | --- | --- |
| OC[C@H]1O[C@@H](n2cnc3c(NCc4ccco4)ncnc32)[C@H](O)[C@@H]1O [C, kinetin riboside, reference compound] | inactive | – | 10^−5 mol · l^−1 | 100% | – | – | – | – | – | – | Effect (modulation of isoproterenol-induced cAMP synthesis) (β-adrenergic receptors; listed as control): none |
